In patent US20200179308A1, “USE OF ISOHUMULONES AND DERIVATIVES THEREOF TO TREAT POLYCYSTIC OVARY SYNDROME” (KINDEX PHARMACEUTICALS, INC., priority 2017, published 2020):
“And” between values parts separate entries of the source, which are not always exact repeats. Identical values can stand only once. “Also recorded” adds a separate entry of the source.

Key:
Type in all cases: in vivo
DIO female mice [1] = test: Estrous cyclicity by vaginal cytology over 15 consecutive days; conditions: for percent of mice acyclic (did not complete even 1 complete estrous cycle): 15 day period beginning 10 days after treatment
Description: Diet-induced obesity has been reported to impair estrous cyclicity in female mice (Brothers et al., Wu et al.). In these studies, DIO females were treated with KDT501, PIO or VEH beginning 8 weeks after change to high fat diet. Mice were assessed for estrous cycle stage for 15 consecutive days beginning 10 days after drug/VEH treatment. Vaginal cytology was assessed daily between 9 and 10 am for 15 consecutive days beginning the 10th days after drug treatment. Vaginal cells were collected via saline lavage and then fixed with 100% ethanol and stained with the DIFF Quick Stain Kit (IMEB Inc., San Marcos, Calif., USA). Stages were assessed based on vaginal cytology (Nelson et al. 1982): predominant cornified epithelium indicated the estrus stage, predominant nucleated cells indicated the proestrus stage, both cornified and leukocytes indicated the metestrus stage, and predominant leukocytes indicated the diestrus stage. The percentage of mice at each different cycle stage in each group was calculated.

DIO female mice [2] = test: Serum pituitary gonadotropin (LH, FSH) levels, Luminex Milliplex mouse pituitary panel; conditions: KDT501 100 mg/kg, PIO 30 mg/kg oral once a day, compared to VEH
Description: (§1) To measure serum levels of LH, FSH, insulin, and leptin, serum samples were collected from mice via mandibular bleed. Mice were fasted overnight, and insulin or saline was injected IP according to the body weight of the mice (0.3 units/kg). Samples were obtained between 9:00 and 10:00 am on diestrus for baseline LH and FSH so as to avoid cycle dependent LH surges that occur in the late afternoon on the evening of proestrus. Rodent morning LH levels are not thought to vary in a cycle dependent manner (Helena et al. 2006). For fasting measurements of insulin, samples were also obtained between 9:00 and 10:00 am. Tissues were collected 10 minutes after insulin injection and snap-frozen in liquid nitrogen. Protein was obtained and measured as described previously (Brothers et al. 2010). To quantify the levels of phosphorylated AKT (pAKT), and AKT for different tissues of each individual animal after insulin or saline injection, Bio-Plex Phosphoprotein Detection Multiplex assays were used (Bio-Rad Laboratories, Hercules, Calif.). Protein ([…]) from each tissue was loaded into a 96-well microplate. Assays were conducted using the Luminex 200 system. Values were assessed as mean fluorescent intensity of phospho-specific signal. Serum was analyzed on a Luminex 20015 platform using the Milliplex Map mouse pituitary panel (LH/FSH) and a Milliplex mouse metabolic panel (insulin/leptin; Millipore, Billerica, Mass., USA). The assay detection limit for LH was 0.0019 ng/mL; for FSH, 0.0095 ng/mL; for insulin, 13.0 pg/mL; and for leptin, 4.2 pg/mL. Serum Testosterone was measured by radioimmunoassay at the University of Virginia Ligand Assay Core.

[3] = Weight gain on high fat diet in DIO female mice; conditions: female mice on 60% HFD; oral once a day; KDT501 100 mg/kg, PIO 30 mg/kg; compared to VEH
Text: To generate DIO mice, 7 week old female mice on a mixed strain background (129SvJ, C57B16, CD1) were placed and maintained on a high fat diet (HFD) for 8 weeks prior to study and throughout the course of study. The high fat diet consisted of 60% Kcal from fat with an energy density of 5.24 kcal/gm (D12492, Research Diets, Inc., New Brunswick, N.J., USA).
Wood chip bedding was maintained in these cages so that mice would not supplement their diet by eating the standard corncob bedding. Mice were weighed every week. The regular chow diet (Tekland Global 18% protein diet) was 24% Kcal from protein, 58% Kcal from carbohydrate, and 18% Kcal from fat with an energy density of 3.1 kcal/g (Harlan Laboratories, Indianapolis, Ind., USA). All procedures were performed with approval by the Johns Hopkins Animal Care and Use Committee under standard light and dark cycles.
At 80 days after introduction to high fat diet, the test compounds were administered orally to the mice once a day. […]
Female mice fed a high fat diet (60% calories from fat) gained approximately 4 grams of weight during the 8 week study period (FIG. 1). […] All data were analyzed with using Prism Software 5 GraphPad Software (La Jolla, CA) and are expressed as means ±SEM. Significance was determined via unpaired two- tailed Student t-test, one- or two-way ANOVA with the appropriate post-hoc tests. […]

DIO female mice [4] = test: IP-glucose tolerance test (IP-GTT); conditions: one month after drug treatment, relative to VEH
Description: (§2) To begin to assess the effects of drug treatment on glucose metabolism in female DIO mice, IP-glucose tolerance test (IP-GTT) was performed. One month after drug treatment, mice were tested for glucose tolerance by IP-GTT. The mice were fasted overnight for 16 hours, blood was drawn through the tail vein and baseline blood glucose was measured using a OneTouch Ultra glucometer. 20% dextrose was injected IP (2 g/kg body weight). Sample blood glucose was measured at 15, 30, 60, 90 and 120 minutes. One week after IP-GTT, the mice were tested for whole body insulin sensitivity by insulin tolerance test (ITT). Mice were fasted for seven hours, blood was drawn through the tail vein and baseline blood glucose was measured as above. 0.3 units/kg insulin was injected IP. Blood glucose of each mouse were measured at 15, 30, 60, 90 and 120 minutes. Area under the curve (AUC) was calculated for both the IP-GTT and the ITT.

DIO female mice [5] = test: Liver lipid accumulation, H&E staining quantified with ImageJ
Description: Liver tissues were collected and placed immediately in 10% formalin. 5 μm sections of tissue were stained with H&E by the Johns Hopkins Molecular and Comparative Pathobiology Phenotyping Core. Quantification of the area of fat in liver tissue was measured with NIH imageJ software and compared across groups.

DIO female mice [6] = test: Fasting serum insulin, leptin and IL-6 by Luminex assay; conditions: between VEH, KDT501 and PIO groups
Description: as §1

DIO female mice [7] = test: Insulin tolerance test (ITT), whole body insulin sensitivity
Description: as §2

[8] = 15 day period, KDT501 100 mg/kg, PIO 30 mg/kg

| Structure (SMILES) | percent of mice acyclic (did not complete even 1 complete estrous cycle) (DIO female mice [1]; KDT501 100 mg/kg, PIO 30 mg/kg) | percentage of mice that completed 3 complete estrous cycles (DIO female mice [1]; [8]) | percentage of mice that had (at least) two complete estrous cycles (DIO female mice [1]; [8]) | percentage of mice that had one complete estrous cycle (DIO female mice [1]; [8]) | number of complete estrous cycles per mouse (DIO female mice [1]; 15 days of analysis, compared to VEH) | morning serum FSH level (DIO female mice [2]) | morning serum LH level (DIO female mice [2]) | ratio of LH/FSH (DIO female mice [2]) | weight gain (Δ weight from week 0) over the 8 week study period [3] | glucose tolerance (blood glucose after IP dextrose) (DIO female mice [4]; 16 h fast, 2 g/kg dextrose IP) | glucose tolerance, IP-GTT area under the curve (AUC) (DIO female mice [4]) | fat / lipid accumulation in liver, KDT501 versus PIO (DIO female mice [5]; KDT501 100 mg/kg compared to PIO 30 mg/kg) | fat / lipid accumulation in liver (DIO female mice [5]; KDT501 100 mg/kg, PIO 30 mg/kg, relative to VEH) | fasting serum IL-6 level (DIO female mice [6]) | fasting serum insulin level (DIO female mice [6]) | fasting serum leptin level (DIO female mice [6]) | insulin sensitivity, ITT area under the curve (AUC) (DIO female mice [7]; 0.3 units/kg insulin IP, relative to VEH) | fasting glucose levels (7 hrs fasting) (DIO female mice [7]; before insulin injection, compared to VEH controls) |
| --- | --- | --- | --- | --- | --- | --- | --- | --- | --- | --- | --- | --- | --- | --- | --- | --- | --- | --- |
| CC(C)CCC(=O)[C@@]1(O)C([O-])=C(C(=O)CC(C)C)C(=O)[C@@H]1CCC(C)C.[K+] [KDT501, Potassium salt of (+)-KDT500] | 7.1% | 20% | 60% | Roughly an even percentage | significantly more complete estrous cycles; also recorded: significant increase in number of cycles/mouse | not significantly altered | not significantly altered | no significant difference | no weight gain; also recorded: attenuated weight gain | improved glucose tolerance | significant improvement in glucose tolerance | significantly less lipid accumulation; also recorded: significantly less fat | significantly less lipid accumulation; also recorded: significant reduction in fat | not significantly different; also recorded: No significant differences | not significantly different; also recorded: No significant differences | not significantly different; also recorded: No significant differences | improved insulin sensitivity | lower fasting glucose levels |
| CCc1ccc(CCOc2ccc(CC3SC(=O)NC3=O)cc2)nc1 (stereo not drawn) [PIO, Pioglitazone, reference compound] | 20% | 21% and 28% | 25-28% |  |  |  |  |  |  |  |  |  |  |  |  |  |  |  |
